Results from ChEMBL document CHEMBL3885861, “Open TG-GATES”.

Organism: Rattus norvegicus
Assay: Open TG-GATES - Regimen: Single
Assay type: toxicity, organism-based, Sprague-Dawley
Parameters: regimen Single, gender Male, age 6 weeks
Conditions: in vivo, po, route gavage; for APTT / Bas / Eos / Fbg / Hb / Ht / Lym / MCH / MCHC / MCV / Mono / Neu / PT / RBC / Ret / WBC / Plat: tissue Blood; for KIDNEY_L / KIDNEY_R / KIDNEY_TOTAL: tissue Kidney; for ALP / ALT / AST / BUN / CRE / Ca / DBIL / GLC / K / LDH / Na / PL / RALB / TBIL / TC / TG / TP / gamma-GTP / IP: tissue Plasma; for LIVER: tissue Liver
[1] = 50 mg/kg, 3 h, dose level Middle

Work on `Oc1ncnc2[nH]ncc12` [ALLOPURINOL] yielded an APTT (15 mg/kg, 3 h, dose level Low) of 16.3 s, a Bas (15 mg/kg, 3 h, dose level Low) of 0% and an Eos (15 mg/kg, 3 h, dose level Low) of 1%. It also gave a Fbg (15 mg/kg, 3 h, dose level Low) of 209.6 mg/dL, a Hb (15 mg/kg, 3 h, dose level Low) of 13.9 g/dL and a Ht (15 mg/kg, 3 h, dose level Low) of 41.2%. It also gave a Lym (15 mg/kg, 3 h, dose level Low) of 80.4%, an MCH (15 mg/kg, 3 h, dose level Low) of 22 pg and an MCHC (15 mg/kg, 3 h, dose level Low) of 33.8%. For the same compound, the MCV (15 mg/kg, 3 h, dose level Low) was 65 fL, the Mono (15 mg/kg, 3 h, dose level Low) was 7.4% and the Neu (15 mg/kg, 3 h, dose level Low) was 11.2%. It also gave a PT (15 mg/kg, 3 h, dose level Low) of 12.5 s, an RBC (15 mg/kg, 3 h, dose level Low) of 636 x10_4/ul and a Ret (15 mg/kg, 3 h, dose level Low) of 8.4%. For the same compound, the WBC (15 mg/kg, 3 h, dose level Low) was 99.2 x10_2/uL, the KIDNEY_L (15 mg/kg, 3 h, dose level Low) was 1 g and the KIDNEY_R (15 mg/kg, 3 h, dose level Low) was 1 g. It also gave a KIDNEY_TOTAL (15 mg/kg, 3 h, dose level Low) of 2 g, an ALP (15 mg/kg, 3 h, dose level Low) of 884.4 IU/L and an ALT (15 mg/kg, 3 h, dose level Low) of 35.4 IU/L. It also gave an AST (15 mg/kg, 3 h, dose level Low) of 64.4 IU/L, a BUN (15 mg/kg, 3 h, dose level Low) of 12.4 mg/dL and a CRE (15 mg/kg, 3 h, dose level Low) of 0.5 mg/dL. For the same compound, the Ca (15 mg/kg, 3 h, dose level Low) was 11.3 mg/dL, the DBIL (15 mg/kg, 3 h, dose level Low) was 0.086 mg/dL and the GLC (15 mg/kg, 3 h, dose level Low) was 183.8 mg/dL. It also gave a K (15 mg/kg, 3 h, dose level Low) of 4.9 meq/L, an LDH (15 mg/kg, 3 h, dose level Low) of 115.4 IU/L and a Na (15 mg/kg, 3 h, dose level Low) of 139.2 meq/L. It also gave a PL (15 mg/kg, 3 h, dose level Low) of 132.8 mg/dL, an RALB (15 mg/kg, 3 h, dose level Low) of 3.7 g/dL and a TBIL (15 mg/kg, 3 h, dose level Low) of 0.4 mg/dL. For the same compound, the TC (15 mg/kg, 3 h, dose level Low) was 73.4 mg/dL, the TG (15 mg/kg, 3 h, dose level Low) was 54.6 mg/dL and the TP (15 mg/kg, 3 h, dose level Low) was 5.5 g/dL. The gamma-GTP (15 mg/kg, 3 h, dose level Low) was 1.6 IU/L, the TERMINAL_BW (15 mg/kg, 6 h, dose level Low) was 209.5 g and the APTT (15 mg/kg, 6 h, dose level Low) was 16.8 s. The Bas (15 mg/kg, 6 h, dose level Low) was 0%, the Eos (15 mg/kg, 6 h, dose level Low) was 0.4% and the Fbg (15 mg/kg, 6 h, dose level Low) was 206.8 mg/dL. It also gave a Hb (15 mg/kg, 6 h, dose level Low) of 13.6 g/dL, a Ht (15 mg/kg, 6 h, dose level Low) of 40.5% and a Lym (15 mg/kg, 6 h, dose level Low) of 79%. For the same compound, the MCH (15 mg/kg, 6 h, dose level Low) was 21.8 pg, the MCHC (15 mg/kg, 6 h, dose level Low) was 33.5% and the MCV (15 mg/kg, 6 h, dose level Low) was 65.3 fL. The Mono (15 mg/kg, 6 h, dose level Low) was 6.2%, the Neu (15 mg/kg, 6 h, dose level Low) was 14.2% and the PT (15 mg/kg, 6 h, dose level Low) was 12.4 s. For the same compound, the Plat (15 mg/kg, 6 h, dose level Low) was 109.1 x10_4/uL, the RBC (15 mg/kg, 6 h, dose level Low) was 620.2 x10_4/ul and the Ret (15 mg/kg, 6 h, dose level Low) was 8.1%. It also gave a WBC (15 mg/kg, 6 h, dose level Low) of 101.3 x10_2/uL, a KIDNEY_L (15 mg/kg, 6 h, dose level Low) of 1 g and a KIDNEY_R (15 mg/kg, 6 h, dose level Low) of 1 g. For the same compound, the KIDNEY_TOTAL (15 mg/kg, 6 h, dose level Low) was 2 g, the LIVER (15 mg/kg, 6 h, dose level Low) was 9.6 g and the ALP (15 mg/kg, 6 h, dose level Low) was 695 IU/L. It also gave an ALT (15 mg/kg, 6 h, dose level Low) of 30 IU/L, an AST (15 mg/kg, 6 h, dose level Low) of 58 IU/L and a BUN (15 mg/kg, 6 h, dose level Low) of 11 mg/dL. For the same compound, the CRE (15 mg/kg, 6 h, dose level Low) was 0.5 mg/dL, the Ca (15 mg/kg, 6 h, dose level Low) was 11.4 mg/dL and the DBIL (15 mg/kg, 6 h, dose level Low) was 0.024 mg/dL. It also gave a GLC (15 mg/kg, 6 h, dose level Low) of 187 mg/dL, an IP (15 mg/kg, 6 h, dose level Low) of 10.1 mg/dL and a K (15 mg/kg, 6 h, dose level Low) of 4.8 meq/L. For the same compound, the LDH (15 mg/kg, 6 h, dose level Low) was 74.8 IU/L, the Na (15 mg/kg, 6 h, dose level Low) was 138.4 meq/L and the PL (15 mg/kg, 6 h, dose level Low) was 126.6 mg/dL. The RALB (15 mg/kg, 6 h, dose level Low) was 3.7 g/dL, the TBIL (15 mg/kg, 6 h, dose level Low) was 0.3 mg/dL and the TC (15 mg/kg, 6 h, dose level Low) was 67.6 mg/dL. It also gave a TG (15 mg/kg, 6 h, dose level Low) of 60.8 mg/dL, a TP (15 mg/kg, 6 h, dose level Low) of 5.5 g/dL and a gamma-GTP (15 mg/kg, 6 h, dose level Low) of 1 IU/L. It also gave a TERMINAL_BW (15 mg/kg, 9 h, dose level Low) of 204 g, an APTT (15 mg/kg, 9 h, dose level Low) of 16.6 s and a Bas (15 mg/kg, 9 h, dose level Low) of 0%. It also gave an Eos (15 mg/kg, 9 h, dose level Low) of 1.2%, a Fbg (15 mg/kg, 9 h, dose level Low) of 221.6 mg/dL and a Hb (15 mg/kg, 9 h, dose level Low) of 13.6 g/dL. It also gave a Ht (15 mg/kg, 9 h, dose level Low) of 40.7%, a Lym (15 mg/kg, 9 h, dose level Low) of 66.4% and an MCH (15 mg/kg, 9 h, dose level Low) of 21.7 pg. It also gave an MCHC (15 mg/kg, 9 h, dose level Low) of 33.4%, an MCV (15 mg/kg, 9 h, dose level Low) of 65 fL and a Mono (15 mg/kg, 9 h, dose level Low) of 11.8%. The Neu (15 mg/kg, 9 h, dose level Low) was 20.4%, the PT (15 mg/kg, 9 h, dose level Low) was 12.3 s and the RBC (15 mg/kg, 9 h, dose level Low) was 626.6 x10_4/ul. For the same compound, the Ret (15 mg/kg, 9 h, dose level Low) was 7.9%, the WBC (15 mg/kg, 9 h, dose level Low) was 92.7 x10_2/uL and the KIDNEY_L (15 mg/kg, 9 h, dose level Low) was 1 g. The KIDNEY_R (15 mg/kg, 9 h, dose level Low) was 1 g, the KIDNEY_TOTAL (15 mg/kg, 9 h, dose level Low) was 1.9 g and the LIVER (15 mg/kg, 9 h, dose level Low) was 9.1 g. It also gave an ALP (15 mg/kg, 9 h, dose level Low) of 837 IU/L, an ALT (15 mg/kg, 9 h, dose level Low) of 27.6 IU/L and an AST (15 mg/kg, 9 h, dose level Low) of 58.8 IU/L. It also gave a BUN (15 mg/kg, 9 h, dose level Low) of 13 mg/dL, a CRE (15 mg/kg, 9 h, dose level Low) of 0.4 mg/dL and a DBIL (15 mg/kg, 9 h, dose level Low) of 0.042 mg/dL. It also gave a GLC (15 mg/kg, 9 h, dose level Low) of 198.8 mg/dL, a K (15 mg/kg, 9 h, dose level Low) of 4.8 meq/L and an LDH (15 mg/kg, 9 h, dose level Low) of 74.6 IU/L. It also gave a Na (15 mg/kg, 9 h, dose level Low) of 138.6 meq/L, a PL (15 mg/kg, 9 h, dose level Low) of 129.8 mg/dL and an RALB (15 mg/kg, 9 h, dose level Low) of 3.8 g/dL. For the same compound, the TBIL (15 mg/kg, 9 h, dose level Low) was 0.3 mg/dL, the TC (15 mg/kg, 9 h, dose level Low) was 69.2 mg/dL and the TG (15 mg/kg, 9 h, dose level Low) was 53.2 mg/dL. The TP (15 mg/kg, 9 h, dose level Low) was 5.7 g/dL, the gamma-GTP (15 mg/kg, 9 h, dose level Low) was 1.4 IU/L and the TERMINAL_BW (15 mg/kg, 24 h, dose level Low) was 224.8 g. For the same compound, the APTT (15 mg/kg, 24 h, dose level Low) was 16.1 s, the Bas (15 mg/kg, 24 h, dose level Low) was 0% and the Eos (15 mg/kg, 24 h, dose level Low) was 1.2%. The Fbg (15 mg/kg, 24 h, dose level Low) was 213.8 mg/dL, the Hb (15 mg/kg, 24 h, dose level Low) was 13.6 g/dL and the Ht (15 mg/kg, 24 h, dose level Low) was 40.8%. It also gave a Lym (15 mg/kg, 24 h, dose level Low) of 79.4%, an MCH (15 mg/kg, 24 h, dose level Low) of 21.8 pg and an MCHC (15 mg/kg, 24 h, dose level Low) of 33.3%. For the same compound, the MCV (15 mg/kg, 24 h, dose level Low) was 65.4 fL, the Mono (15 mg/kg, 24 h, dose level Low) was 7.2% and the Neu (15 mg/kg, 24 h, dose level Low) was 12.4%. For the same compound, the PT (15 mg/kg, 24 h, dose level Low) was 12.2 s, the Plat (15 mg/kg, 24 h, dose level Low) was 113.4 x10_4/uL and the RBC (15 mg/kg, 24 h, dose level Low) was 623 x10_4/ul. It also gave a Ret (15 mg/kg, 24 h, dose level Low) of 7.9%, a WBC (15 mg/kg, 24 h, dose level Low) of 93.3 x10_2/uL and a KIDNEY_L (15 mg/kg, 24 h, dose level Low) of 1 g. It also gave a KIDNEY_R (15 mg/kg, 24 h, dose level Low) of 1 g, a KIDNEY_TOTAL (15 mg/kg, 24 h, dose level Low) of 2 g and an ALP (15 mg/kg, 24 h, dose level Low) of 884.8 IU/L. It also gave an ALT (15 mg/kg, 24 h, dose level Low) of 33.2 IU/L, an AST (15 mg/kg, 24 h, dose level Low) of 61.6 IU/L and a BUN (15 mg/kg, 24 h, dose level Low) of 17.8 mg/dL. The CRE (15 mg/kg, 24 h, dose level Low) was 0.5 mg/dL, the DBIL (15 mg/kg, 24 h, dose level Low) was 0.024 mg/dL and the GLC (15 mg/kg, 24 h, dose level Low) was 187.4 mg/dL. The IP (15 mg/kg, 24 h, dose level Low) was 8 mg/dL, the K (15 mg/kg, 24 h, dose level Low) was 5 meq/L and the LDH (15 mg/kg, 24 h, dose level Low) was 85.2 IU/L. It also gave a Na (15 mg/kg, 24 h, dose level Low) of 138.8 meq/L, a PL (15 mg/kg, 24 h, dose level Low) of 149.8 mg/dL and an RALB (15 mg/kg, 24 h, dose level Low) of 3.6 g/dL. The TBIL (15 mg/kg, 24 h, dose level Low) was 0.3 mg/dL, the TC (15 mg/kg, 24 h, dose level Low) was 78 mg/dL and the TG (15 mg/kg, 24 h, dose level Low) was 91.4 mg/dL. The TP (15 mg/kg, 24 h, dose level Low) was 5.7 g/dL, the gamma-GTP (15 mg/kg, 24 h, dose level Low) was 1.8 IU/L and the TERMINAL_BW [1] was 210.9 g. The APTT [1] was 16.6 s and the Bas [1] was 0%.
